# Values of other authors, collected in patent US20240226060A1, “TOPICAL LIPOSOME POLYPHENOL COMPOSITIONS FOR TREATING AND PREVENTING VARIOUS SKIN DISORDERS AND METHODS OF PREPARATION THEREOF” (PANAG PHARMA INC., priority 2021, published 2024).
# Read-outs that look alike come from different tables or passages of the source.
# Columns and labels:
# [1] = test system: CFA-induced arthritis
# [2] = test system: epidermolysis bullosa; details: CBD oil, 3 patients
# [3] = simulated physiological conditions pH 7.4 and 37° C., within 24 hours
# [4] = test system: facial skin aging; details: 1% apigenin cream, twice daily, 2 and 4 weeks
# [5] = not given; remark: listed apart in the source
# [6] = test system: melasma
# [7] = 2% minoxidil in MLVs
# [8] = test system: facial acne vulgaris; details: for revised Leeds score at week 8: baseline 5.1
# [9] = surfactant micelles, U.S. Pat. No. 10,709,748
# [10] = twice daily 3 days, 4 hours after last dose
# [11] = 1% EGCG, 8 weeks, vs baseline and vehicle
molecule,measurement,setting,value
"C=C(C)[C@@H]1CCC(C)=C[C@H]1c1c(O)cc(CCCCC)cc1O [CBD, cannabidiol]",joint swelling and pain,"[1]; 1% CBD gel on shaved back, 4 days",optimally reduced swelling and alleviated pain
same,joint swelling and pain,[1]; 10% CBD gel versus 1%,did not yield additional improvement
same,CFA-induced edema,"[1]; lower doses (0.1, 0.5% CBD gel)",no effect
same,patient-reported outcome,[2],"faster wound healing, less blistering, and amelioration of pain"
same,CBD loss,[3],10%
same,encapsulation efficiency,[9],86%
"CCCCCc1cc(O)c2c(c1)OC(C)(C)[C@@H]1CCC(C)=C[C@@H]21 [THC, tetrahydrocannabinol]",encapsulation efficiency,[9],92%
O=c1cc(-c2ccc(O)cc2)oc2cc(O)cc(O)c12 [apigenin],"dermal density, skin elasticity, length of fine wrinkles",[4],Significant improvements
same,"skin moisture content, TEWL and skin texture",[4],significantly improved
same,solubility,[5]; ethanol,poor solubility
same,solubility,[5]; propylene glycol and polyethylene glycol 400,superior solubilities
Oc1ccc(O)cc1 [hydroquinone],"patients presenting with erythema, burning and scaling",[6]; 4% cream in melasma patients,71%
same,MASI score reduction from baseline,"[6]; 4% cream, after three months",39%
Clc1ccc(COC(Cn2ccnc2)c2ccc(Cl)cc2Cl)c(Cl)c1 (stereo not drawn) [miconazole nitrate],encapsulation efficiency,"proliposome method with propylene glycol, El-Khordagui et al",95.6%
Nc1cc(N2CCCCC2)nc(N)[n+]1[O-] [minoxidil],"drug in cumulative urine samples, liposome versus suspension & solution",[7],significant less drug
same,"drug content in dermis, liposome versus suspension & solution",[7]; [10],4-5 fold
same,"drug content in epidermis, liposome versus suspension & solution",[7]; [10],2-3 fold
same,"drug content on skin surface, liposome versus suspension & solution",[7]; [10],3-4 fold
CC(=O)[C@H]1CC[C@H]2[C@@H]3CCC4=CC(=O)CC[C@]4(C)[C@H]3CC[C@]12C [progesterone],encapsulation efficiency (EE),"DPPC/cholesterol MLVs, thin film hydration, U.S. Pat. No. 4,485,054",77%
epigallocatechin 3-gallate [EGCG],revised Leeds score at week 8,[8]; 1% EGCG hydroalcoholic solution,1.2
same,mean inflammatory lesion count decrease,[8]; [11],89%
same,mean noninflammatory lesion count decrease,[8]; [11],79%
same,revised Leeds score at week 8,[8]; 5% EGCG hydroalcoholic solution,1.7
isoscutellarein,incorporation efficiency,"liposomes, 9 parts egg PC to 2 parts flavonoid, Demetzos et al",95%
